Consider 27 molecules from patent publication US12209087B2, “AKT1 modulators” (Alterome Therapeutics, Inc., priority 2022, dated 2025).

The test deals with T1, full length AKT E17K (Homo sapiens, UniProt P31749, E17K).
T1 construct: host or cells: HEK-293 (ATCC CRL-1573)
T1 sequence (P31749 whole entry E17K): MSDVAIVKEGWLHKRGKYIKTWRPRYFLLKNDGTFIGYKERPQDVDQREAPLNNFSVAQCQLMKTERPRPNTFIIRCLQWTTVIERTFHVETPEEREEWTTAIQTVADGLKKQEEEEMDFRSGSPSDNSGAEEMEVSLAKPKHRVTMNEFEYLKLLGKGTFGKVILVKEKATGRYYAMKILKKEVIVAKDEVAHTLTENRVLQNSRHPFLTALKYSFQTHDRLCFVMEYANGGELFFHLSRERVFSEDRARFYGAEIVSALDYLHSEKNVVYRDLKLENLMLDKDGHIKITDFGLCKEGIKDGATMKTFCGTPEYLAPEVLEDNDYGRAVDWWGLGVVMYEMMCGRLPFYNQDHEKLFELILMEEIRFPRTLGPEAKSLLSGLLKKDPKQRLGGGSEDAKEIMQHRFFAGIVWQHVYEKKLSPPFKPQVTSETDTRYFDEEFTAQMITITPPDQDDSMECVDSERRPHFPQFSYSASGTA
Put plainly: NanoBRET Target Engagement (TE) Assay. It counts as cell-based. The note with it: competitive tracer displacement in living cells, read-out: AKT1 E17K IC50. Summed up: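 Compound and tracer incubated 2 h before luminescence at donor 450 nm and acceptor 600 nm, with extracellular signal inhibited. EC50 by sigmoidal variable-slope regression.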
Usually IC50 stands for the concentration that inhibits the measured activity by half. Take `C[C@@H]1CN(Cc2ccc(-n3c(-c4cccnc4N)nc4ccc(-c5ccccc5)nc43)cc2)CCN1c1ncnc(C#N)n1` [Example 273, (R)-4-(4-(4-(2-(2-Aminopyridin-3-yl)-5-phenyl-3H-imidazo[4,5-b]pyridin-3-yl)benzyl)-2-methylpiperazin-1-yl)-1,3,5-triazine-2-carbonitrile]: the IC50 is < 15 nM.
In the case of `C[C@H]1CN(Cc2ccc(-n3c(-c4cccnc4N)nc4ccc(-c5ccccc5)nc43)cc2)CCN1c1ncnc(C#N)n1` [Example 274, (S)-4-(4-(4-(2-(2-Aminopyridin-3-yl)-5-phenyl-3H-imidazo[4,5-b]pyridin-3-yl)benzyl)-2-methylpiperazin-1-yl)-1,3,5-triazine-2-carbonitrile] it was 15 to 60 nM.
The result for `C[C@H]1CN(Cc2ccc(-n3c(-c4cccnc4N)nc4ccc(-c5ccccc5)nc43)cc2)C[C@H](C)N1c1ncnc(C#N)n1` [Example 275, 4-((2S,6S)-4-(4-(2-(2-Aminopyridin-3-yl)-5-phenyl-3H-imidazo[4,5-b]pyridin-3-yl)benzyl)-2,6-dimethylpiperazin-1-yl)-1,3,5-triazine-2-carbonitrile] reads < 15 nM; that for `N#Cc1ncnc(N2CCN(Cc3ccc(-n4c(-c5cccnc5N)nc5ccc(-c6ccccc6)nc54)cc3)CC23CC3)n1` [Example 276, 4-(7-(4-(2-(2-aminopyridin-3-yl)-5-phenyl-3H-imidazo[4,5-b]pyridin-3-yl)benzyl)-4,7-diazaspiro[2.5]octan-4-yl)-1,3,5-triazine-2-carbonitrile], < 15 nM.
With `C[C@@H]1CN(Cc2ccc(-n3c(-c4cccnc4N)nc4ccc(-c5ccccc5)nc43)cc2)C[C@H](C)N1c1ncnc(C#N)n1` [Example 277, 4-((2R,6S)-4-(4-(2-(2-aminopyridin-3-yl)-5-phenyl-3H-imidazo[4,5-b]pyridin-3-yl)benzyl)-2,6-dimethylpiperazin-1-yl)-1,3,5-triazine-2-carbonitrile], the IC50 is 15 to 60 nM.
The result for `N#Cc1ncnc(NC2CCCN(Cc3ccc(-n4c(-c5cccnc5N)nc5ccc(-c6ccccc6)nc54)cc3)CC2)n1` (stereo not drawn) [Example 278, 4-((1-(4-(2-(2-Aminopyridin-3-yl)-5-phenyl-3H-imidazo[4,5-b]pyridin-3-yl)benzyl)azepan-4-yl)amino)-1,3,5-triazine-2-carbonitrile] reads 15 to 60 nM.
In the case of `N#Cc1ncnc(NC2COCCN(Cc3ccc(-n4c(-c5cccnc5N)nc5ccc(-c6ccccc6)nc54)cc3)C2)n1` (stereo not drawn) [Example 279, 4-((4-(4-(2-(2-Aminopyridin-3-yl)-5-phenyl-3H-imidazo[4,5-b]pyridin-3-yl)benzyl)-1,4-oxazepan-6-yl)amino)-1,3,5-triazine-2-carbonitrile] it was < 15 nM; in that of `Cc1ccc2nc(-c3cccnc3N)n(-c3ccc(CN4CCC(Nc5ccnc(C#N)n5)CC4)cc3)c2n1` [Example 280, 4-((1-(4-(2-(2-Aminopyridin-3-yl)-5-methyl-3H-imidazo[4,5-b]pyridin-3-yl)benzyl)piperidin-4-yl)amino)pyrimidine-2-carbonitrile], < 15 nM.
The result for `N#Cc1nccc(N2CCN(Cc3ccc(-n4c(-c5cccnc5N)nc5ccc(-c6ccccc6F)nc54)cc3)CC2)n1` [Example 281, 4-(4-(4-(2-(2-Aminopyridin-3-yl)-5-(2-fluorophenyl)-3H-imidazo[4,5-b]pyridin-3-yl)benzyl)piperazin-1-yl)pyrimidine-2-carbonitrile] reads < 15 nM; that for `N#Cc1ccnc(N2CCN(Cc3ccc(-n4c(-c5cccnc5N)nc5ccc(-c6ccccc6F)nc54)cc3)CC2)n1` [Example 282, 2-(4-(4-(2-(2-Aminopyridin-3-yl)-5-(2-fluorophenyl)-3H-imidazo[4,5-b]pyridin-3-yl)benzyl)piperazin-1-yl)pyrimidine-4-carbonitrile], 15 to 60 nM; that for `N#Cc1ccnc(N2CCN(Cc3ccc(-n4c(-c5cccnc5N)nc5ccc(N6CCCNC(=O)C6)nc54)cc3)CC2)n1` [Example 283, 2-(4-(4-(2-(2-Aminopyridin-3-yl)-5-(3-oxo-1,4-diazepan-1-yl)-3H-imidazo[4,5-b]pyridin-3-yl)benzyl)piperazin-1-yl)pyrimidine-4-carbonitrile], 15 to 60 nM.
As to `N#Cc1cc(N2CCN(Cc3ccc(-n4c(-c5cccnc5N)nc5ccc(N6CCCNC(=O)C6)nc54)cc3)CC2)ncn1` [Example 284, 6-(4-(4-(2-(2-Aminopyridin-3-yl)-5-(3-oxo-1,4-diazepan-1-yl)-3H-imidazo[4,5-b]pyridin-3-yl)benzyl)piperazin-1-yl)pyrimidine-4-carbonitrile], the IC50 is 60 to 600 nM.
In the case of `N#Cc1ncnc(N2CC3CCC(C2)N3Cc2ccc(-n3c(-c4cccnc4N)nc4ccc(N5CCOCC5)nc43)cc2)n1` [Example 285, 4-(8-(4-(2-(2-Aminopyridin-3-yl)-5-morpholino-3H-imidazo[4,5-b]pyridin-3-yl)benzyl)-3,8-diazabicyclo[3.2.1]octan-3-yl)-1,3,5-triazine-2-carbonitrile] it was < 15 nM; in that of `CC(C)c1ccc2nc(-c3cccnc3N)n(-c3ccc(CN4CCC(Nc5ccnc(C#N)n5)CC4)cc3)c2n1` [Example 286, 4-((1-(4-(2-(2-Aminopyridin-3-yl)-5-isopropyl-3H-imidazo[4,5-b]pyridin-3-yl)benzyl)piperidin-4-yl)amino)pyrimidine-2-carbonitrile], < 15 nM; in that of `COc1ccc2nc(-c3cccnc3N)n(-c3ccc(CN4CCC(Nc5ccnc(C#N)n5)CC4)cc3)c2n1` [Example 287, 4-((1-(4-(2-(2-Aminopyridin-3-yl)-5-methoxy-3H-imidazo[4,5-b]pyridin-3-yl)benzyl)piperidin-4-yl)amino)pyrimidine-2-carbonitrile], < 15 nM.
The result for `N#Cc1nccc(NC2CCN(Cc3ccc(-n4c(-c5cccnc5N)nc5ccc(C(N)=O)nc54)cc3)CC2)n1` [Example 288, 2-(2-aminopyridin-3-yl)-3-(4-((4-((2-cyanopyrimidin-4-yl)amino)piperidin-1-yl)methyl)phenyl)-3H-imidazo[4,5-b]pyridine-5-carboxamide] reads 15 to 60 nM.
In the case of `CN(C)C(=O)c1ccc2nc(-c3cccnc3N)n(-c3ccc(CN4CCC(Nc5ccnc(C#N)n5)CC4)cc3)c2n1` [Example 289, 2-(2-aminopyridin-3-yl)-3-(4-((4-((2-cyanopyrimidin-4-yl)amino)piperidin-1-yl)methyl)phenyl)-N,N-dimethyl-3H-imidazo[4,5-b]pyridine-5-carboxamide] it was 60 to 600 nM; in that of `N#Cc1cc(N2CCN(Cc3ccc(-n4c(-c5cccnc5N)nc5ccc(C6CC6)nc54)cc3)CC2)ncn1` [Example 290, 6-(4-(4-(2-(2-Aminopyridin-3-yl)-5-cyclopropyl-3H-imidazo[4,5-b]pyridin-3-yl)benzyl)piperazin-1-yl)pyrimidine-4-carbonitrile], 15 to 60 nM.
As for `N#Cc1cc(NC2CCN(Cc3ccc(-n4c(-c5cccnc5N)nc5ccc(C6CC6)nc54)cc3)CC2)ncn1` [Example 291, 6-((1-(4-(2-(2-Aminopyridin-3-yl)-5-cyclopropyl-3H-imidazo[4,5-b]pyridin-3-yl)benzyl)piperidin-4-yl)amino)pyrimidine-4-carbonitrile], the IC50 was in the range of 15 to 60 nM.
In the case of `N#Cc1ncnc(N2CCN(Cc3ccc(-n4c(-c5cccnc5N)nc5ccc(N6CCOCC6)nc54)cc3)CC2)n1` [Example 292, 4-(4-(4-(2-(2-Aminopyridin-3-yl)-5-morpholino-3H-imidazo[4,5-b]pyridin-3-yl)benzyl)piperazin-1-yl)-1,3,5-triazine-2-carbonitrile] it was < 15 nM; in that of `N#Cc1nccc(N2CCN(Cc3ccc(-n4c(-c5cccnc5N)nc5ccc(-c6ccccc6C#N)nc54)cc3)CC2)n1` [Example 293, 4-(4-(4-(2-(2-Aminopyridin-3-yl)-5-(2-cyanophenyl)-3H-imidazo[4,5-b]pyridin-3-yl)benzyl)piperazin-1-yl)pyrimidine-2-carbonitrile], < 15 nM; in that of `N#Cc1ccc(-c2ccc3nc(-c4cccnc4N)n(-c4ccc(CN5CCN(c6ccnc(C#N)n6)CC5)cc4)c3n2)cc1` [Example 294, 4-(4-(4-(2-(2-Aminopyridin-3-yl)-5-(4-cyanophenyl)-3H-imidazo[4,5-b]pyridin-3-yl)benzyl)piperazin-1-yl)pyrimidine-2-carbonitrile], 15 to 60 nM.
For the molecule `N#Cc1nccc(N2CCN(Cc3ccc(-n4c(-c5cccnc5N)nc5ccc(-c6cccc(F)c6)nc54)cc3)CC2)n1` [Example 295, 4-(4-(4-(2-(2-Aminopyridin-3-yl)-5-(3-fluorophenyl)-3H-imidazo[4,5-b]pyridin-3-yl)benzyl)piperazin-1-yl)pyrimidine-2-carbonitrile], the IC50 is < 15 nM.
In the case of `N#Cc1nccc(N2CCN(Cc3ccc(-n4c(-c5cccnc5N)nc5ccc(-c6cccc(Cl)c6)nc54)cc3)CC2)n1` [Example 296, 4-(4-(4-(2-(2-Aminopyridin-3-yl)-5-(3-chlorophenyl)-3H-imidazo[4,5-b]pyridin-3-yl)benzyl)piperazin-1-yl)pyrimidine-2-carbonitrile] it was < 15 nM; in that of `N#Cc1ccnc(N2CCN(Cc3ccc(-n4c(-c5cccnc5N)nc5ccc(-c6cccc(Cl)c6)nc54)cc3)CC2)n1` [Example 297, 2-(4-(4-(2-(2-Aminopyridin-3-yl)-5-(3-chlorophenyl)-3H-imidazo[4,5-b]pyridin-3-yl)benzyl)piperazin-1-yl)pyrimidine-4-carbonitrile], 60 to 600 nM.
In the case of `N#Cc1nccc(NC2CCN(Cc3ccc(-n4c(-c5cccnc5N)nc5ccc(C6CC6)nc54)cc3)CC2)n1` [Example 298, 4-((1-(4-(2-(2-Aminopyridin-3-yl)-5-cyclopropyl-3H-imidazo[4,5-b]pyridin-3-yl)benzyl)piperidin-4-yl)amino)pyrimidine-2-carbonitrile], the IC50 is < 15 nM.
The result for `N#Cc1nccc(NC2CCN(Cc3ccc(-n4c(-c5cccnc5N)nc5ccc(C6CCOCC6)nc54)cc3)CC2)n1` [Example 299, 4-((1-(4-(2-(2-Aminopyridin-3-yl)-5-(tetrahydro-2H-pyran-4-yl)-3H-imidazo[4,5-b]pyridin-3-yl)benzyl)piperidin-4-yl)amino)pyrimidine-2-carbonitrile] reads < 15 nM.
